The subject of assay [1] is Leishmania infantum. The assay can be described thus: Antileishmanial activity against Leishmania infantum MHOM/TN/80/IPT1 promastigotes assessed as inhibition of parasite growth after 72 hrs by MTT assay. The format is functional, organism-based. As to conditions: MHOM/TN/80/IPT1, 72 h. For orientation: Tetrazolium assays rely on reduction of a dye to a coloured formazan, in cell work by metabolically active cells.

A short description of assay [2]: Selectivity index, ratio of IC50 for HMEC1 to IC50 for Leishmania infantum MHOM/TN/80/IPT1.
Assay [3] can be described thus: Selectivity index, ratio of IC50 for HMEC1 to IC50 for Leishmania tropica MHOM/IT/2012/ISS3130.
Assay [4] concerns Leishmania braziliensis. Briefly: Antileishmanial activity against Leishmania braziliensis MHOM/IT/2006/ISS2848 promastigotes assessed as inhibition of parasite growth after 72 hrs by MTT assay. The assay is classed as functional, organism-based. As to conditions: MHOM/IT/2006/ISS2848, 72 h.
Assay [5] has as its system Leishmania tropica. Briefly: Antileishmanial activity against Leishmania tropica MHOM/IT/2012/ISS3130 promastigotes assessed as inhibition of parasite growth after 72 hrs by MTT assay. The note with it: MHOM/IT/2012/ISS3130, 72 h. The format is functional, organism-based.
Assay [6] can be described thus: Cytotoxicity against HMEC1 cells after 72 hrs by MTT assay. The assay is classed as cell-based. As to conditions: Homo sapiens, HMEC-1, 72 h.
Assay [7] is described as follows: Selectivity index, ratio of IC50 for HMEC1 to IC50 for Leishmania braziliensis MHOM/IT/2006/ISS2848.
Assay [8] is described as follows: Selectivity index, ratio of IC50 for HMEC1 to IC50 for chloroquine-sensitive Plasmodium falciparum D10.
The nature of assay [9]: Selectivity index, ratio of IC50 for HMEC1 to IC50 for chloroquine-resistant Plasmodium falciparum W2.
Assay [10] relates to Plasmodium falciparum. Briefly: Resistance index, ratio of IC50 for chloroquine-resistant Plasmodium falciparum W2 to IC50 for chloroquine-sensitive Plasmodium falciparum D10. The format is functional.
Assay [11] deals with Plasmodium falciparum. The assay can be described thus: Antiplasmodial activity against chloroquine-sensitive Plasmodium falciparum D10 assessed as inhibition of parasite growth after 72 hrs by parasite lactate dehydrogenase assay. As to conditions: D10, 72 h. The format is functional, organism-based.
The subject of assay [12] is Plasmodium falciparum. Briefly: Antiplasmodial activity against chloroquine-resistant Plasmodium falciparum W2 assessed as inhibition of parasite growth after 72 hrs by parasite lactate dehydrogenase assay. The note with it: W2, 72 h. The format is functional, organism-based.

For `C[C@@H]1[C@H](O)[C@@H](C)/C=C/C=C/C=C/C=C/C=C/C=C/C=C/[C@H](O[C@@H]2O[C@H](C)[C@@H](O)[C@H](N)[C@@H]2O)C[C@@H]2O[C@](O)(C[C@@H](O)C[C@@H](O)[C@H](O)CC[C@@H](O)C[C@@H](O)CC(=O)O[C@H]1C)C[C@H](O)[C@H]2C(=O)O` [AMPHOTERICIN B], the IC50 in assay [1] turned out to be 80 nM; in assay [4], 90 nM; in [5], 90 nM; in assay [6], 25700 nM. Further, the Ratio IC50 amounted to 321 in assay [2], 286 in [3] and 286 in [7].
`Cl.c1ccc(Nc2cc3nc4ccccc4n(-c4ccccc4)c-3c/c2=N/CCCCCCC23CCCCN2CCCC3)cc1`: the IC50 in assay [1] was found to be 230 nM; in assay [4], 140 nM; in [5], 120 nM; in [6], 1240 nM; in assay [11] it was 170 nM; in [12], 210 nM. The Ratio IC50 in assay [2] stood at 5.4; in assay [3], 10.3; in [8] it was 7.3; in assay [9] it was 5.9; in assay [7] it was 8.9; in [10] it was 1.2.
With `Cl.c1ccc(Nc2cc3nc4ccccc4n(-c4ccccc4)c-3c/c2=N/CCCCC23CCCCN2CCCC3)cc1`, the IC50 amounted to 370 nM in assay [1]; 170 nM in [4]; 220 nM in [5]; 1230 nM in assay [6]; 210 nM in [11]; 270 nM in assay [12]. For the same compound, the Ratio IC50 in assay [2] was 3.3; in [3], 5.6; in assay [8], 5.9; in [9] it was 4.5; in assay [7], 7.2; in [10], 1.3.
On to `CC(C)/N=c1\cc2n(-c3ccc(Cl)cc3)c3ccccc3nc-2cc1Nc1ccc(Cl)cc1` [CLOFAZIMINE], for which the half-inhibitory concentration (IC50) in [1] was 4480 nM; in assay [5], 2960 nM; in [6] it was 18600 nM; in assay [11] it was 4820 nM; in [12], 7020 nM. For the same compound, the Ratio IC50 in assay [2] is 4.2; in [3], 6.3; in assay [8], 3.9; in assay [9], 2.6; in assay [10], 1.5.
In the case of `COc1ccc(Nc2cc3nc4ccccc4n(-c4ccccc4)c-3c/c2=N/CCCCC23CCCCN2CCCC3)cn1.Cl`, the IC50 in assay [1] is 4440 nM; in [5], 2320 nM; in [6] it was 6320 nM; in assay [11] it was 810 nM; in assay [12], 350 nM. For the same compound, the Ratio IC50 in assay [2] stood at 1.4; in [3] it was 2.7; in assay [8] it was 7.8; in assay [9], 18.1; in [10], 0.4.
Take `Cl.Clc1ccc(Nc2cc3nc4ccccc4n(-c4ccc(Cl)cc4)c-3c/c2=N/CCC23CCCN2CCC3)cc1`: the IC50 in assay [1] was determined as 300 nM; in assay [5], 540 nM; in assay [6], 980 nM; in assay [11], 190 nM; in assay [12], 450 nM. Further, the Ratio IC50 in assay [2] amounted to 3.3; in assay [3] it was 1.8; in [8], 5.2; in assay [9], 2.2; in [10], 2.4.

The IC50 is the concentration that gives 50% inhibition.

(Values after ChEMBL document CHEMBL3351819, “Clofazimine analogs with antileishmanial and antiplasmodial activity” (Bioorg Med Chem, 2015).)
